# Literature values, collected in US11103490B2, “Clevidipine emulsion formulations containing antimicrobial agents” (Chiesi Farmaceutici, S.P.A., priority 2010, dated 2021).
# Key:
# [1] = in vivo
structure (smiles),measurement,setting,value
"CCCC(=O)OCOC(=O)C1=C(C)NC(C)=C(C(=O)OC)C1c1cccc(Cl)c1Cl (stereo not shown) [Clevidipine, clevidipine]",initial phase half-life,[1],about one
same,terminal half-life,[1],approximately 15 minutes
same,solubility in lipids,,moderate to high
same,solubility in water,,low
